Values quoted from earlier work in paper PMC3313018 (Cancer Chemotherapy and Pharmacology, 2011).

System: patients with advanced renal cell carcinoma
Conditions: cited from earlier work

In the case of `CO[C@H]1C[C@@H]2CC[C@@H](C)[C@@](O)(O2)C(=O)C(=O)N2CCCC[C@H]2C(=O)O[C@H]([C@H](C)C[C@@H]2CC[C@@H](OCCO)[C@H](OC)C2)CC(=O)[C@H](C)/C=C(\C)[C@@H](O)[C@@H](OC)C(=O)[C@H](C)C[C@H](C)/C=C/C=C/C=C/1C` [everolimus], the Incidence of pneumonitis (Japanese patients with advanced renal cell carcinoma ref 18) is listed as 27% and the “Incidence of pneumonitis, overall rate” value (patients with renal cell carcinoma overall ref 18) is listed as 11%.
